The numbers were not newly measured in patent publication US20200038414A1, “METHODS OF TREATING CONSTIPATION USING AMINOSTEROL COMPOSITIONS” (Enterin, Inc., priority 2018, published 2020), which cites them from elsewhere.

SMILES strings stand for the structures.

Data set [1] has as its system PD population with constipation. The note with it: short term placebo controlled trial in PD; loose stools/diarrhea in place of constipation; cited from earlier work.
A further data set relates to C. elegans model of PD. The settings on record: C. elegans model; cited from earlier work.
The test system of a further data set is mouse models of PD. The note with it: several mouse models of PD; cited from earlier work.
For data set [2] the following is noted: following systemic administration, in mice; into the duodenum through the biliary tract; cited from earlier work.

As to `CCCCC(F)(F)[C@@]1(O)CC[C@H]2[C@@H](CC(=O)[C@@H]2CCCCCCC(=O)O)O1` [Lubiprostone], in data set [1], the “share of treated patients in whom effective” value is “about 50%”.

In the case of `CC(C)[C@@H](CC[C@@H](C)[C@H]1CC[C@H]2[C@@H]3[C@H](O)C[C@H]4C[C@@H](NCCCNCCCCN)CC[C@]4(C)[C@H]3CC[C@]12C)OS(=O)(=O)O` [squalamine], in the data set with C. elegans model of PD, the “effect on muscle paralysis” value was “complete reversal of muscle paralysis”. In the data set on mouse models of PD, the “effect on gastrointestinal dysmotility” value is on record as “reverse gastrointestinal dysmotility”. In addition, the clearance and excretion result in data set [2] was “cleared by the liver and excreted as the intact molecule”.
